According to patent publication US20110028549A1, “USE OF A MONOTERPENE TO TREAT OR PREVENT STRESS” (AISA THERAPEUTICS, priority 2007, published 2011):

How the values were obtained:
[1] = target: isoprenylation enzymes; conditions: cited from earlier work
[2] = system: female rats Wistar HsdBrlHan; test: Functional Observation Battery (FOB) in rats after oral treatment; format: in vivo, rat; conditions: for aggression (summary) / audible vocalization (summary) / body temperature (summary) / escapes after finger approach (summary) / interest for an object, curiosity (summary) / irritability (summary) / mictions (summary) / number of squares crossed (summary) / pain response (summary) / spontaneous activity (summary) / startle response (summary) / time before the rat falls (summary) / toe pinch reflex (summary) / wire manoeuvre (summary): FOB 1, 2 or 3 hours later, in comparison with the control; for capacity to tolerate stress: rats submitted to several stressful conditions, compared to vehicle-treated animals
Procedure: 1, 2 or 3 hours later, a Functional Observation Battery (FOB) was carried out.
Eighteen female rats Wistar HsdBrlHan EOPS (Ganat, France) with an average weight of 175-200 g are used. The 18 rats are weighed, marked and shared in 3 groups of 6 (n=6):
“control” group=oral treatment with maize oil;
“Perillic alcohol 10” group=oral treatment with perillic alcohol at 10 mg/kg;
The observations are carried out 60 minutes before treatment and 60, 120 and 180 minutes after the administration orally of the assayed products and comprise three observation phases:
a first direct observation phase during which the animal is not disturbed;
an active observation phase during which the animal is manipulated;
a phase dedicated to the evaluation of the responses of the animals towards the reactivity assays.
The studied variables are the following:
behavioural effects: spontaneous locomotive activity, locomotive behaviour troubles, anxiety, touch response, irritability, aggression and freezing caused behaviours, somnolence, number of defecations, number of mictions, sensor-motor responses (toe pinch response and sound response);
neurological effects: pupillary reflex, palpebral closure, pelvic elevation, tail position, limb and abdominal tones, reversal test, grip test, tremors and piloerection;
physiological effects: salivation, lacrimation, diarrhea, body temperature, respiratory rhythm.
Considering the Gaussian distribution or not of the data, parametric (P) or non-parametric (NP) tests are used: ANOVA (P) or Kruskal-Wallis test (NP) followed possibly by the Dunnett test (P) or the Mann-Whitney test (NP) to compare the treated groups with the control group. Statistics are carried out with the Statview 5 software (SAS, Institute Inc., USA).

[3] = 100 mg/kg limonene ingested in a custard, 4 h after ingestion, GC/MS; cited from earlier work
[4] = cancer patients, doses which may have clinical activity; cited from earlier work
[5] = 10 mg/kg orally, T+60 min, Mann-Whitney test
[6] = 10 mg/kg orally, T+120 min, Mann-Whitney test
[7] = 10 mg/kg orally, T+120 min, Mann-Whitney test vs. Control, n = 6
[8] = 10 mg/kg orally, T+180 min, Mann-Whitney test
[9] = 10 mg/kg orally, T+180 min, Mann-Whitney test vs. Control, n = 6

Compound | IC50 on isoprenylation enzymes [1] | inhibition of the isoprenylation enzymes [1] | duration of the effect ([2]; 10 mg/kg orally) | overall effect indicated by the FOB results ([2]; 10 mg/kg orally) | time to response (onset) ([2]; 10 mg/kg orally) | aggression (summary) ([2]; 10 mg/kg orally) | audible vocalization (summary) ([2]; 10 mg/kg orally) | body temperature (summary) ([2]; 10 mg/kg orally) | escapes after finger approach (summary) ([2]; 10 mg/kg orally) | interest for an object, curiosity (summary) ([2]; 10 mg/kg orally) | irritability (summary) ([2]; 10 mg/kg orally) | mictions (summary) ([2]; 10 mg/kg orally) | number of squares crossed (summary) ([2]; 10 mg/kg orally) | pain response (summary) ([2]; 10 mg/kg orally) | spontaneous activity (summary) ([2]; 10 mg/kg orally) | startle response (summary) ([2]; 10 mg/kg orally) | time before the rat falls (summary) ([2]; 10 mg/kg orally) | toe pinch reflex (summary) ([2]; 10 mg/kg orally) | wire manoeuvre (summary) ([2]; 10 mg/kg orally) | Audible vocalization vs control group [2, 5] | other results
C=C(C)[C@@H]1CC=C(C(=O)O)CC1 [perillic acid] | low mM range | more potent inhibitors | – | – | – | – | – | – | – | – | – | – | – | – | – | – | – | – | – | – | –
C=C(C)[C@@H]1CC=C(CO)CC1 [Perillic alcohol, (S)-4-Isopropenyl-1-cyclohexenylmethanol] | low mM range | more potent inhibitors | already decreased after 2 hours | an appeasing, relaxing effect, an anti-pain effect and an effect on temper giving a cheerful character | less than one hour | no aggression | very poor | a decrease | less quickly escapes | an increase | no irritability | an increase | an increase | a high decrease | an increase | an important decrease | an increase | a decrease | an increase | tendancy to emit less vocalization | Interest for an object vs control group [2, 5]: tendency to have a more important interest; Irritability vs control group [2, 5]: significantly less irritable; Toe pinch reflex vs control group [2, 5]: significantly less reactive; Finger approach, escapes vs control group [2, 6]: significantly less escapes; Audible vocalization [2, 7]: N.S.; Interest for an object [2, 7]: N.S.; Irritability [2, 7]: N.S.; Startles [2, 7]: N.S.; Audible vocalization vs control group [2, 8]: tendency to emit less vocalization; Body temperature [2, 9]: N.S.; Interest for an object [2, 9]: N.S.; Number of squares crossed [2, 9]: N.S.; Startles [2, 9]: N.S.; Wire manoeuver [2, 9]: N.S.; capacity to tolerate stress [2]: an important effect leading to the capacity to tolerate stress
S-limonene | – | only weak inhibitors | – | – | – | – | – | – | – | – | – | – | – | – | – | – | – | – | – | – | –
C=C(C)[C@H]1CC=C(C)CC1 [Limonene, (4R)-1-methyl-4-isopropenylcyclohex-1-ene] | – | only weak inhibitors | at least 3 hours | an appeasing, relaxing effect, an anti-pain effect and an effect on temper giving a cheerful character | less than one hour | no aggression | very poor | a decrease | less quickly escapes | an increase | no irritability | an increase | an increase | a high decrease | an increase | an important decrease | an increase | a decrease | an increase | significantly less vocalization | compounds (plasma metabolites) present in blood [3]: at least five compounds; identity of the two major plasma metabolite peaks [3]: dihydroperillic acid and perillic acid; tolerability [4]: well tolerated; Interest for an object vs control group [2, 5]: significantly more important; Irritability vs control group [2, 5]: significantly less irritable; Toe pinch reflex vs control group [2, 5]: significantly less reactive; Audible vocalization vs control group [2, 6]: significantly less vocalization; Finger approach, escapes vs control group [2, 6]: significantly less escapes; Interest for an object vs control group [2, 6]: significantly more important; Irritability vs control group [2, 6]: significantly less irritable; Startles vs control group [2, 6]: significantly less startles; Audible vocalization vs control group [2, 8]: significantly less vocalization; Body temperature vs control group [2, 8]: significantly lower; Interest for an object vs control group [2, 8]: significantly higher; Number of squares crossed vs control group [2, 8]: significantly more squares; Startles vs control group [2, 8]: significantly less startles; Wire manoeuvre vs control group [2, 8]: significantly more often; capacity to tolerate stress [2]: an important effect leading to the capacity to tolerate stress
